Source: BigSolDB 2.1

Q: Which solubility (mole fraction) (in 1,4-dioxane, 288.15 K) does the source give for `CC(=O)Nc1ccc(C(=O)O)cc1` here?
A: The solubility (mole fraction) was 0.00281.

Q: And the solubility (mole fraction) (in 1,4-dioxane, 293.15 K)?
A: Its solubility (mole fraction) is 0.00326.

Q: And the solubility (mole fraction) (in 1,4-dioxane, 298.15 K)?
A: Its solubility (mole fraction) is 0.00345.

Q: What about the solubility (mole fraction) (in 1,4-dioxane, 303.15 K) of the same molecule?
A: Its solubility (mole fraction) is 0.00394.

Q: And the solubility (mole fraction) (in 1,4-dioxane, 308.15 K)?
A: The solubility (mole fraction) was 0.00446.

Q: What about the solubility (mole fraction) (in 1,4-dioxane, 313.15 K) of the same molecule?
A: The solubility (mole fraction) was 0.00491.

Q: And the solubility (mole fraction) (in 1,4-dioxane, 318.15 K)?
A: The solubility (mole fraction) was 0.00577.

Q: And the solubility (mole fraction) (in 1,4-dioxane, 323.15 K)?
A: The solubility (mole fraction) was 0.00639.

Q: And the solubility (mole fraction) (in 1,4-dioxane, 328.15 K)?
A: Its solubility (mole fraction) is 0.00698.

Q: And the solubility (mole fraction) (in acetic acid, 293.15 K)?
A: The solubility (mole fraction) was 0.00404.

Q: And the solubility (mole fraction) (in acetic acid, 298.15 K)?
A: The solubility (mole fraction) was 0.00486.

Q: And the solubility (mole fraction) (in acetic acid, 303.15 K)?
A: The solubility (mole fraction) was 0.00554.

Q: And the solubility (mole fraction) (in acetic acid, 308.15 K)?
A: The solubility (mole fraction) was 0.00625.

Q: What about the solubility (mole fraction) (in acetic acid, 313.15 K) of the same molecule?
A: The solubility (mole fraction) was 0.007.

Q: What about the solubility (mole fraction) (in acetic acid, 318.15 K) of the same molecule?
A: The solubility (mole fraction) was 0.00782.

Q: What about the solubility (mole fraction) (in acetic acid, 323.15 K) of the same molecule?
A: Its solubility (mole fraction) is 0.00894.

Q: And the solubility (mole fraction) (in acetic acid, 328.15 K)?
A: Its solubility (mole fraction) is 0.00963.

Q: What about the solubility (mole fraction) (in acetic acid, 333.15 K) of the same molecule?
A: The solubility (mole fraction) was 0.0111.

Q: And the solubility (mole fraction) (in acetone, 283.15 K)?
A: Its solubility (mole fraction) is 0.00302.

Q: And the solubility (mole fraction) (in acetone, 288.15 K)?
A: The solubility (mole fraction) was 0.00338.

Q: And the solubility (mole fraction) (in acetone, 293.15 K)?
A: Its solubility (mole fraction) is 0.00384.

Q: What about the solubility (mole fraction) (in acetone, 298.15 K) of the same molecule?
A: Its solubility (mole fraction) is 0.00454.

Q: And the solubility (mole fraction) (in acetone, 303.15 K)?
A: Its solubility (mole fraction) is 0.00538.

Q: And the solubility (mole fraction) (in acetone, 308.15 K)?
A: Its solubility (mole fraction) is 0.00635.

Q: What about the solubility (mole fraction) (in acetone, 313.15 K) of the same molecule?
A: The solubility (mole fraction) was 0.00709.

Q: What about the solubility (mole fraction) (in acetone, 318.15 K) of the same molecule?
A: Its solubility (mole fraction) is 0.00804.

Q: What about the solubility (mole fraction) (in acetone, 323.15 K) of the same molecule?
A: Its solubility (mole fraction) is 0.00913.

Q: What about the solubility (mole fraction) (in acetonitrile, 283.15 K) of the same molecule?
A: Its solubility (mole fraction) is 0.000293.

Q: What about the solubility (mole fraction) (in acetonitrile, 288.15 K) of the same molecule?
A: The solubility (mole fraction) was 0.000405.

Q: What about the solubility (mole fraction) (in acetonitrile, 293.15 K) of the same molecule?
A: Its solubility (mole fraction) is 0.000433.

Q: And the solubility (mole fraction) (in acetonitrile, 298.15 K)?
A: The solubility (mole fraction) was 0.000515.

Q: And the solubility (mole fraction) (in acetonitrile, 303.15 K)?
A: The solubility (mole fraction) was 0.000653.

Q: And the solubility (mole fraction) (in acetonitrile, 308.15 K)?
A: Its solubility (mole fraction) is 0.000803.

Q: What about the solubility (mole fraction) (in acetonitrile, 313.15 K) of the same molecule?
A: Its solubility (mole fraction) is 0.000943.

Q: And the solubility (mole fraction) (in acetonitrile, 318.15 K)?
A: The solubility (mole fraction) was 0.00107.

Q: What about the solubility (mole fraction) (in acetonitrile, 323.15 K) of the same molecule?
A: The solubility (mole fraction) was 0.00132.

Q: What about the solubility (mole fraction) (in ethanol, 283.15 K) of the same molecule?
A: The solubility (mole fraction) was 0.00586.

Q: What about the solubility (mole fraction) (in ethanol, 288.15 K) of the same molecule?
A: The solubility (mole fraction) was 0.00674.

Q: What about the solubility (mole fraction) (in ethanol, 293.15 K) of the same molecule?
A: The solubility (mole fraction) was 0.0075.

Q: And the solubility (mole fraction) (in ethanol, 298.15 K)?
A: Its solubility (mole fraction) is 0.00834.

Q: And the solubility (mole fraction) (in ethanol, 303.15 K)?
A: Its solubility (mole fraction) is 0.00921.

Q: And the solubility (mole fraction) (in ethanol, 308.15 K)?
A: The solubility (mole fraction) was 0.0101.

Q: What about the solubility (mole fraction) (in ethanol, 313.15 K) of the same molecule?
A: The solubility (mole fraction) was 0.0114.

Q: What about the solubility (mole fraction) (in ethanol, 318.15 K) of the same molecule?
A: Its solubility (mole fraction) is 0.0126.

Q: What about the solubility (mole fraction) (in ethanol, 323.15 K) of the same molecule?
A: Its solubility (mole fraction) is 0.014.

Q: What about the solubility (mole fraction) (in isobutanol, 283.15 K) of the same molecule?
A: The solubility (mole fraction) was 0.00351.

Q: And the solubility (mole fraction) (in isobutanol, 288.15 K)?
A: Its solubility (mole fraction) is 0.00456.

Q: And the solubility (mole fraction) (in isobutanol, 293.15 K)?
A: Its solubility (mole fraction) is 0.00519.

Q: What about the solubility (mole fraction) (in isobutanol, 298.15 K) of the same molecule?
A: The solubility (mole fraction) was 0.00601.

Q: And the solubility (mole fraction) (in isobutanol, 303.15 K)?
A: Its solubility (mole fraction) is 0.00696.

Q: And the solubility (mole fraction) (in isobutanol, 308.15 K)?
A: The solubility (mole fraction) was 0.00822.

Q: And the solubility (mole fraction) (in isobutanol, 313.15 K)?
A: The solubility (mole fraction) was 0.00912.

Q: And the solubility (mole fraction) (in isobutanol, 318.15 K)?
A: Its solubility (mole fraction) is 0.0103.

Q: What about the solubility (mole fraction) (in isobutanol, 323.15 K) of the same molecule?
A: The solubility (mole fraction) was 0.0113.

Q: And the solubility (mole fraction) (in isopropanol, 283.15 K)?
A: Its solubility (mole fraction) is 0.00546.

Q: And the solubility (mole fraction) (in isopropanol, 288.15 K)?
A: The solubility (mole fraction) was 0.00663.

Q: What about the solubility (mole fraction) (in isopropanol, 293.15 K) of the same molecule?
A: Its solubility (mole fraction) is 0.00713.

Q: What about the solubility (mole fraction) (in isopropanol, 298.15 K) of the same molecule?
A: The solubility (mole fraction) was 0.00796.

Q: What about the solubility (mole fraction) (in isopropanol, 303.15 K) of the same molecule?
A: The solubility (mole fraction) was 0.009.

Q: What about the solubility (mole fraction) (in isopropanol, 308.15 K) of the same molecule?
A: The solubility (mole fraction) was 0.00986.

Q: And the solubility (mole fraction) (in isopropanol, 313.15 K)?
A: The solubility (mole fraction) was 0.011.

Q: What about the solubility (mole fraction) (in isopropanol, 318.15 K) of the same molecule?
A: The solubility (mole fraction) was 0.012.

Q: What about the solubility (mole fraction) (in isopropanol, 323.15 K) of the same molecule?
A: Its solubility (mole fraction) is 0.0137.

Q: And the solubility (mole fraction) (in methanol, 283.15 K)?
A: The solubility (mole fraction) was 0.006.

Q: And the solubility (mole fraction) (in methanol, 288.15 K)?
A: The solubility (mole fraction) was 0.00663.

Q: What about the solubility (mole fraction) (in methanol, 293.15 K) of the same molecule?
A: Its solubility (mole fraction) is 0.00738.

Q: What about the solubility (mole fraction) (in methanol, 298.15 K) of the same molecule?
A: Its solubility (mole fraction) is 0.00839.

Q: And the solubility (mole fraction) (in methanol, 303.15 K)?
A: Its solubility (mole fraction) is 0.00941.

Q: And the solubility (mole fraction) (in methanol, 308.15 K)?
A: Its solubility (mole fraction) is 0.0103.

Q: What about the solubility (mole fraction) (in methanol, 313.15 K) of the same molecule?
A: Its solubility (mole fraction) is 0.0115.

Q: And the solubility (mole fraction) (in methanol, 318.15 K)?
A: The solubility (mole fraction) was 0.0126.

Q: What about the solubility (mole fraction) (in methanol, 323.15 K) of the same molecule?
A: Its solubility (mole fraction) is 0.0141.

Q: What about the solubility (mole fraction) (in n-butanol, 283.15 K) of the same molecule?
A: Its solubility (mole fraction) is 0.00486.

Q: What about the solubility (mole fraction) (in n-butanol, 288.15 K) of the same molecule?
A: Its solubility (mole fraction) is 0.00552.

Q: What about the solubility (mole fraction) (in n-butanol, 293.15 K) of the same molecule?
A: The solubility (mole fraction) was 0.00599.

Q: And the solubility (mole fraction) (in n-butanol, 298.15 K)?
A: The solubility (mole fraction) was 0.00722.

Q: What about the solubility (mole fraction) (in n-butanol, 303.15 K) of the same molecule?
A: Its solubility (mole fraction) is 0.00812.

Q: What about the solubility (mole fraction) (in n-butanol, 308.15 K) of the same molecule?
A: Its solubility (mole fraction) is 0.00974.

Q: What about the solubility (mole fraction) (in n-butanol, 313.15 K) of the same molecule?
A: The solubility (mole fraction) was 0.0108.

Q: And the solubility (mole fraction) (in n-butanol, 318.15 K)?
A: Its solubility (mole fraction) is 0.0122.

Q: What about the solubility (mole fraction) (in n-butanol, 323.15 K) of the same molecule?
A: The solubility (mole fraction) was 0.0136.

Q: And the solubility (mole fraction) (in n-pentanol, 283.15 K)?
A: The solubility (mole fraction) was 0.00507.

Q: What about the solubility (mole fraction) (in n-pentanol, 288.15 K) of the same molecule?
A: The solubility (mole fraction) was 0.00554.

Q: And the solubility (mole fraction) (in n-pentanol, 293.15 K)?
A: Its solubility (mole fraction) is 0.00607.

Q: And the solubility (mole fraction) (in n-pentanol, 298.15 K)?
A: Its solubility (mole fraction) is 0.00659.

Q: What about the solubility (mole fraction) (in n-pentanol, 303.15 K) of the same molecule?
A: The solubility (mole fraction) was 0.00741.

Q: What about the solubility (mole fraction) (in n-pentanol, 308.15 K) of the same molecule?
A: The solubility (mole fraction) was 0.00844.

Q: What about the solubility (mole fraction) (in n-pentanol, 313.15 K) of the same molecule?
A: Its solubility (mole fraction) is 0.00938.

Q: And the solubility (mole fraction) (in n-pentanol, 318.15 K)?
A: Its solubility (mole fraction) is 0.0115.

Q: What about the solubility (mole fraction) (in n-pentanol, 323.15 K) of the same molecule?
A: Its solubility (mole fraction) is 0.0138.

Q: What about the solubility (mole fraction) (in n-propanol, 283.15 K) of the same molecule?
A: Its solubility (mole fraction) is 0.0048.

Q: And the solubility (mole fraction) (in n-propanol, 288.15 K)?
A: Its solubility (mole fraction) is 0.00548.

Q: And the solubility (mole fraction) (in n-propanol, 293.15 K)?
A: Its solubility (mole fraction) is 0.00608.

Q: What about the solubility (mole fraction) (in n-propanol, 298.15 K) of the same molecule?
A: Its solubility (mole fraction) is 0.007.

Q: What about the solubility (mole fraction) (in n-propanol, 303.15 K) of the same molecule?
A: The solubility (mole fraction) was 0.00792.

Q: And the solubility (mole fraction) (in n-propanol, 308.15 K)?
A: The solubility (mole fraction) was 0.00883.

Q: And the solubility (mole fraction) (in n-propanol, 313.15 K)?
A: Its solubility (mole fraction) is 0.00986.

Q: And the solubility (mole fraction) (in n-propanol, 318.15 K)?
A: Its solubility (mole fraction) is 0.0113.

Q: And the solubility (mole fraction) (in n-propanol, 323.15 K)?
A: The solubility (mole fraction) was 0.0127.

Q: And the solubility (mole fraction) (in sec-butanol, 283.15 K)?
A: The solubility (mole fraction) was 0.00515.

Q: And the solubility (mole fraction) (in sec-butanol, 288.15 K)?
A: The solubility (mole fraction) was 0.00602.

Q: What about the solubility (mole fraction) (in sec-butanol, 293.15 K) of the same molecule?
A: Its solubility (mole fraction) is 0.00666.

Q: What about the solubility (mole fraction) (in sec-butanol, 298.15 K) of the same molecule?
A: The solubility (mole fraction) was 0.00796.

Q: What about the solubility (mole fraction) (in sec-butanol, 303.15 K) of the same molecule?
A: Its solubility (mole fraction) is 0.00936.

Q: What about the solubility (mole fraction) (in sec-butanol, 308.15 K) of the same molecule?
A: Its solubility (mole fraction) is 0.0107.

Q: And the solubility (mole fraction) (in sec-butanol, 313.15 K)?
A: The solubility (mole fraction) was 0.0122.

Q: And the solubility (mole fraction) (in sec-butanol, 318.15 K)?
A: The solubility (mole fraction) was 0.0136.

Q: What about the solubility (mole fraction) (in sec-butanol, 323.15 K) of the same molecule?
A: Its solubility (mole fraction) is 0.015.
